The record followed here is patent US11173151B2, “Substituted triazole derivatives and uses thereof” (BAYER AKTIENGESELLSCHAFT, priority 2017, dated 2021).

SMILES strings stand for the structures.

Assay [1] addresses T1, human V2 receptor (Homo sapiens, UniProt P30518).
T1 construct: expressed in transfected cells; host or cells: CHO K1 (ATCC) expressing firefly luciferase under a CRE-responsive promoter
Nature of the assay: Cellular in vitro assay for determining vasopressin receptor activity, V2 receptor cell line (CHO, CRE-luciferase). Particulars: CHO cell line transfected with human V2 receptor; [Arg8]-vasopressin at EC50 concentration; read-out: IC50 hV2. The assay is classed as cell-based.

Assay [2] addresses T2, human V1a receptor (Homo sapiens, UniProt P37288).
T2 construct: expressed in transfected cells; host or cells: CHO K1 (ATCC), also stably transfected with a modified aequorin
Nature of the assay: Cellular in vitro assay for determining vasopressin receptor activity, V1a receptor cell line (CHO, aequorin luminescence). In kind it is cell-based. Particulars: for IC50: CHO cell line transfected with human V1a receptor, [Arg]-vasopressin at EC50 concentration, read-out: IC50 hV1a; for ratio IC50 hV2/hV1a: selectivity ratio IC50 hV2 / IC50 hV1a. In a few lines:
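CHO K1/aequorin cells, coelenterazine 5 μg/ml o/n; cpd 10 min; [Arg]-vasopressin at EC50; luminescence read immediately; IC50.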

T1 sequence (P30518 whole entry): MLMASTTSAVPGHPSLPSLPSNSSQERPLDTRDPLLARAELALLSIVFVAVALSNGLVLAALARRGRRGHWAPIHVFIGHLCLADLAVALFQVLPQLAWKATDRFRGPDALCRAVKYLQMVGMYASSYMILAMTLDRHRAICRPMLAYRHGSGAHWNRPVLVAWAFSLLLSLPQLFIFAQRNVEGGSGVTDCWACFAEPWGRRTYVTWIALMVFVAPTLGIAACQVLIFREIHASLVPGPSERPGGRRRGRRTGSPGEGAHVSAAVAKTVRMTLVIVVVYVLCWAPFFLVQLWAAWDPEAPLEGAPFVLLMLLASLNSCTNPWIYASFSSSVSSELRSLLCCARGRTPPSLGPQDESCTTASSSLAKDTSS
T2 sequence (P37288 whole entry): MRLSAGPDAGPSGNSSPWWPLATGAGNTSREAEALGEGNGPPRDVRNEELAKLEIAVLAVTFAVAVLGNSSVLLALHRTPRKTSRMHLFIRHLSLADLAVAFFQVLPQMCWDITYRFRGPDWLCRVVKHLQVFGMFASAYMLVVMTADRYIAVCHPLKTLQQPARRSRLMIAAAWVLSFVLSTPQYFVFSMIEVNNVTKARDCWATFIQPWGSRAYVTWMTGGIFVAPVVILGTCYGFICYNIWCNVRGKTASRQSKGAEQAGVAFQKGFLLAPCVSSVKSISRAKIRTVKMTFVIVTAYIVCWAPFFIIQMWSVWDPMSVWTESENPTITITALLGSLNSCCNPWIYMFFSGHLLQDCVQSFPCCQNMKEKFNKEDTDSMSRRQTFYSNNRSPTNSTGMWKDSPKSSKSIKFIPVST

In the case of `O=C(NC1CC1)c1cccnc1-n1cnc(Cn2nc(-c3ccc(Cl)cc3)n(C[C@H](O)C(F)(F)F)c2=O)n1` [Example 496, 2-[3-({3-(4-chlorophenyl)-5-oxo-4-[(2S)-3,3,3-trifluoro-2-hydroxypropyl]-4,5-dihydro-1H-1,2,4-triazol-1-yl}methyl)-1H-1,2,4-triazol-1-yl]-N-cyclopropylpyridine-3-carboxamide], the IC50 in assay [1] was determined as 170 nM. For the same compound, in assay [2], the IC50 came to 7.2 nM and the “ratio IC50 hV2/hV1a” value is recorded as 23.6.

Take `O=C(NCCC(F)(F)F)c1cccnc1-n1cnc(Cn2nc(-c3ccc(Cl)cc3)n(C[C@H](O)C(F)(F)F)c2=O)n1` [Example 497, 2-[3-({3-(4-chlorophenyl)-5-oxo-4-[(2S)-3,3,3-trifluoro-2-hydroxypropyl]-4,5-dihydro-1H-1,2,4-triazol-1-yl}methyl)-1H-1,2,4-triazol-1-yl]-N-(3,3,3-trifluoropropyl)pyridine-3-carboxamide]: the 50% inhibitory concentration (IC50) in assay [1] amounted to 490 nM; in assay [2], 26.5 nM. Moreover, the “ratio IC50 hV2/hV1a” value in assay [2] is reported as 18.5.

Consider `O=C(NC1CC(F)(F)C1)c1cccnc1-n1cnc(Cn2nc(-c3ccc(Cl)cc3)n(C[C@H](O)C(F)(F)F)c2=O)n1` [Example 498, 2-[3-({3-(4-Chlorophenyl)-5-oxo-4-[(2S)-3,3,3-trifluoro-2-hydroxypropyl]-4,5-dihydro-1H-1,2,4-triazol-1-yl}methyl)-1H-1,2,4-triazol-1-yl]-N-(3,3-difluorocyclobutyl)pyridine-3-carboxamide], for which the IC50 in assay [1] was 470 nM; in assay [2] it was 10.5 nM. Besides, the “ratio IC50 hV2/hV1a” value in assay [2] stood at 44.8.

Take `O=C(NCC1CC1)c1cccnc1-n1cnc(Cn2nc(-c3ccc(Cl)cc3)n(C[C@H](O)C(F)(F)F)c2=O)n1` [Example 499, 2-[3-({3-(4-Chlorophenyl)-5-oxo-4-[(2S)-3,3,3-trifluoro-2-hydroxypropyl]-4,5-dihydro-1H-1,2,4-triazol-1-yl}methyl)-1H-1,2,4-triazol-1-yl]-N-(cyclopropylmethyl)pyridine-3-carboxamide]: the half-maximal inhibitory concentration (IC50) in assay [1] is 505 nM. Also, in assay [2], the 50% inhibitory concentration (IC50) came out at 15 nM and the “ratio IC50 hV2/hV1a” value was 33.7.

For `O=C(NC1CC1(F)F)c1cccnc1-n1cnc(Cn2nc(-c3ccc(Cl)cc3)n(C[C@H](O)C(F)(F)F)c2=O)n1` (stereo partly drawn) [Example 500, 2-[3-({3-(4-Chlorophenyl)-5-oxo-4-[(2S)-3,3,3-trifluoro-2-hydroxypropyl]-4,5-dihydro-1H-1,2,4-triazol-1-yl}methyl)-1H-1,2,4-triazol-1-yl]-N-(2,2-difluorocyclopropyl)pyridine-3-carboxamide], the IC50 in assay [1] came out at 305 nM. In assay [2], the IC50 came out at 6.8 nM and the “ratio IC50 hV2/hV1a” value is 44.9.

Regarding `COC[C@H]1CCCN1C(=O)c1cccnc1-n1cnc(Cn2nc(-c3ccc(Cl)cc3)n(C[C@H](O)C(F)(F)F)c2=O)n1` [Example 501, 5-(4-Chlorophenyl)-2-{[1-(3-{[(2R)-2-(methoxymethyl)pyrrolidin-1-yl]carbonyl}pyridin-2-yl)-1H-1,2,4-triazol-3-yl]methyl}-4-[(2S)-3,3,3-trifluoro-2-hydroxypropyl]-2,4-dihydro-3H-1,2,4-triazol-3-one], in assay [1], the IC50 came to 530 nM. Further, in assay [2], the IC50 was 30.5 nM and the “ratio IC50 hV2/hV1a” value is 17.4.

As to `COC[C@@H]1CCCN1C(=O)c1cccnc1-n1cnc(Cn2nc(-c3ccc(Cl)cc3)n(C[C@H](O)C(F)(F)F)c2=O)n1` [Example 502, 5-(4-Chlorophenyl)-2-{[1-(3-{[(2S)-2-(methoxymethyl)pyrrolidin-1-yl]carbonyl}pyridin-2-yl)-1H-1,2,4-triazol-3-yl]methyl}-4-[(2S)-3,3,3-trifluoro-2-hydroxypropyl]-2,4-dihydro-3H-1,2,4-triazol-3-one], the IC50 in assay [1] amounted to 2000 nM; in assay [2], 29.5 nM. For the same compound, the “ratio IC50 hV2/hV1a” value in assay [2] was found to be 67.8.

For the compound `CC1(NC(=O)c2cccnc2-n2cnc(Cn3nc(-c4ccc(Cl)cc4)n(C[C@H](O)C(F)(F)F)c3=O)n2)CC1` [Example 505, 2-[3-({3-(4-Chlorophenyl)-5-oxo-4-[(2S)-3,3,3-trifluoro-2-hydroxypropyl]-4,5-dihydro-1H-1,2,4-triazol-1-yl}methyl)-1H-1,2,4-triazol-1-yl]-N-(1-methylcyclopropyl)pyridine-3-carboxamide], the IC50 in assay [1] was 55 nM. In assay [2], the IC50 amounted to 1.05 nM and the “ratio IC50 hV2/hV1a” value was 52.6.

For the compound `N#CC1(NC(=O)c2cccnc2-n2cnc(Cn3nc(-c4ccc(Cl)cc4)n(C[C@H](O)C(F)(F)F)c3=O)n2)CC1` [Example 506, 2-[3-({3-(4-Chlorophenyl)-5-oxo-4-[(2S)-3,3,3-trifluoro-2-hydroxypropyl]-4,5-dihydro-1H-1,2,4-triazol-1-yl}methyl)-1H-1,2,4-triazol-1-yl]-N-(1-cyanocyclopropyl)pyridine-3-carboxamide], the 50% inhibitory concentration (IC50) in assay [1] turned out to be 905 nM. In assay [2], the half-maximal inhibitory concentration (IC50) came out at 14 nM and the “ratio IC50 hV2/hV1a” value stood at 64.6.

As to `O=C1CN(c2nc(Cn3nc(-c4ccc(Cl)cc4)n(C[C@H](O)C(F)(F)F)c3=O)nn2-c2cccnc2C(=O)NCC(F)(F)F)CCN1` [Example 509, 3-[3-({3-(4-Chlorophenyl)-5-oxo-4-[(2S)-3,3,3-trifluoro-2-hydroxypropyl]-4,5-dihydro-1H-1,2,4-triazol-1-yl}methyl)-5-(3-oxopiperazin-1-yl)-1H-1,2,4-triazol-1-yl]-N-(2,2,2-trifluoroethyl)pyridine-2-carboxamide], the IC50 in assay [1] was 32000 nM; in assay [2], 2650 nM. In assay [2], the “ratio IC50 hV2/hV1a” value worked out at 12.1.

Take `O=C1CN(C(=O)c2nc(Cn3nc(-c4ccc(Cl)cc4)n(C[C@H](O)C(F)(F)F)c3=O)nn2-c2cnccc2C(=O)NCC(F)(F)F)CCN1` [Example 510, 3-{3-({3-(4-Chlorophenyl)-5-oxo-4-[(2S)-3,3,3-trifluoro-2-hydroxypropyl]-4,5-dihydro-1H-1,2,4-triazol-1-yl}methyl)-5-[(3-oxopiperazin-1-yl)carbonyl]-1H-1,2,4-triazol-1-yl}-N-(2,2,2-trifluoroethyl)pyridine-4-carboxamide]: the figures for the half-maximal inhibitory concentration (IC50) in assay [1] and in assay [2] were 8900 nM and 9950 nM, respectively. The “ratio IC50 hV2/hV1a” value in assay [2] is 0.9.

On to `O=C1CN(C(=O)c2nc(Cn3nc(-c4ccc(Cl)cc4)n(C[C@H](O)C(F)(F)F)c3=O)nn2-c2cnccc2C(=O)NCCC(F)(F)F)CCN1` [Example 511, 3-{3-({3-(4-Chlorophenyl)-5-oxo-4-[(2S)-3,3,3-trifluoro-2-hydroxypropyl]-4,5-dihydro-1H-1,2,4-triazol-1-yl}methyl)-5-[(3-oxopiperazin-1-yl)carbonyl]-1H-1,2,4-triazol-1-yl}-N-(3,3,3-trifluoropropyl)pyridine-4-carboxamide], for which the IC50 in assay [1] was found to be 1450 nM. Besides, in assay [2], the IC50 came out at 1650 nM and the “ratio IC50 hV2/hV1a” value amounted to 0.9.

Turning to `O=C1CN(C(=O)c2nc(Cn3nc(-c4ccc(Cl)cc4)n(C[C@H](O)C(F)(F)F)c3=O)nn2-c2ncccc2C(=O)NCCC(F)(F)F)CCN1` [Example 512, 2-{3-({3-(4-Chlorophenyl)-5-oxo-4-[(2S)-3,3,3-trifluoro-2-hydroxypropyl]-4,5-dihydro-1H-1,2,4-triazol-1-yl}methyl)-5-[(3-oxopiperazin-1-yl)carbonyl]-1H-1,2,4-triazol-1-yl}-N-(3,3,3-trifluoropropyl)pyridine-3-carboxamide], the half-maximal inhibitory concentration (IC50) in assay [1] is 1250 nM. In addition, in assay [2], the IC50 came out at 3600 nM and the “ratio IC50 hV2/hV1a” value turned out to be 0.3.

Take `O=C1CN(C(=O)c2nc(Cn3nc(-c4ccc(Cl)cc4)n(C[C@H](O)C(F)(F)F)c3=O)nn2-c2ncccc2C(=O)NC2CC2)CCN1` [Example 513, 2-{3-({3-(4-Chlorophenyl)-5-oxo-4-[(2S)-3,3,3-trifluoro-2-hydroxypropyl]-4,5-dihydro-1H-1,2,4-triazol-1-yl}methyl)-5-[(3-oxopiperazin-1-yl)carbonyl]-1H-1,2,4-triazol-1-yl}-N-cyclopropylpyridine-3-carboxamide]: the IC50 in assay [1] was determined as 5450 nM. For the same compound, in assay [2], the IC50 amounted to 2400 nM and the “ratio IC50 hV2/hV1a” value is 2.3.

For `O=C1CN(C(=O)c2nc(Cn3nc(-c4ccc(Cl)cc4)n(C[C@H](O)C(F)(F)F)c3=O)nn2-c2cnccc2C(=O)NC2CC2)CCN1` [Example 514, 3-{3-({3-(4-Chlorophenyl)-5-oxo-4-[(2S)-3,3,3-trifluoro-2-hydroxypropyl]-4,5-dihydro-1H-1,2,4-triazol-1-yl}methyl)-5-[(3-oxopiperazin-1-yl)carbonyl]-1H-1,2,4-triazol-1-yl}-N-cyclopropylpyridine-4-carboxamide], the IC50 in assay [1] stood at 1250 nM. Also, in assay [2], the IC50 amounted to 340 nM and the “ratio IC50 hV2/hV1a” value stood at 3.7.

In the case of `CC1(NC(=O)c2ccncc2-n2nc(Cn3nc(-c4ccc(Cl)cc4)n(C[C@H](O)C(F)(F)F)c3=O)nc2C(=O)N2CCNC(=O)C2)CC1` [Example 515, 3-{3-({3-(4-Chlorophenyl)-5-oxo-4-[(2S)-3,3,3-trifluoro-2-hydroxypropyl]-4,5-dihydro-1H-1,2,4-triazol-1-yl}methyl)-5-[(3-oxopiperazin-1-yl)carbonyl]-1H-1,2,4-triazol-1-yl}-N-(1-methylcyclopropyl)pyridine-4-carboxamide], the IC50 in assay [1] came to 2250 nM. Moreover, in assay [2], the IC50 turned out to be 2000 nM and the “ratio IC50 hV2/hV1a” value stood at 1.1.

`O=C(NCC(F)(F)F)c1ccncc1-n1nc(Cn2nc(-c3ccc(Cl)cc3)n(C[C@H](O)C(F)(F)F)c2=O)nc1C(=O)N1CCS(=O)(=O)CC1` [Example 518, 3-{3-({3-(4-Chlorophenyl)-5-oxo-4-[(2S)-3,3,3-trifluoro-2-hydroxypropyl]-4,5-dihydro-1H-1,2,4-triazol-1-yl}methyl)-5-[(1,1-dioxidothiomorpholin-4-yl)carbonyl]-1H-1,2,4-triazol-1-yl}-N-(2,2,2-trifluoroethyl)pyridine-4-carboxamide]: the IC50 in assay [1] was 480 nM. Also, in assay [2], the IC50 amounted to 955 nM and the “ratio IC50 hV2/hV1a” value is listed as 0.5.

Broadly, the IC50 is the concentration needed to halve the response being measured.
